{"source": "patent US10683506B2", "about": "“CD117 ligand-drug conjugates for targeted cancer therapy” (THE METHODIST HOSPITAL SYSTEM, priority 2015, dated 2020)", "format_in_all_cases": "cell-based", "key": {"[1]": {"system": "CD117-negative control cells (U937)", "assay": "Cell growth inhibition by MTT assay", "experimental": "(§1) Cell growth inhibition was monitored by MTT (MTT (3-[4,5-dimethylthiazol-2-yl]-2,5-diphenyltetrazolium bromide) assay post treatment. Cells (5000) were treated by CD117 Apt-MTX or equal molar free MTX in RPMI 1640 medium for 2 h. After replacement with fresh medium containing 10% serum, cells were cultured for an additional 48 hours and then 10 μl of MTT solution (5 mg/mL in PBS) were added to each well. After a further 4 h of incubation, the culture medium was removed and the formazan crystals in the cells were solubilized with 100 μl of DMSO for 15 minutes. The UV absorbance at 570 nm was measured with a microplate reader."}, "AML cells (HEL)": {"system": "AML cells (HEL)", "assay": "Cell growth inhibition by MTT assay", "experimental": "as §1"}, "[2]": {"system": "CD117-negative control cells (U937)", "assay": "Apoptosis assay, Annexin V staining, flow cytometry", "conditions": "10 nM MTX payload or equal molar", "experimental": "(§2) Treated cells also were investigated by apoptosis assay. Annexin V-APC staining (BD Biosciences, San Jose, Calif.) was performed according to the manufacturer's instructions. The cell samples were analyzed using a FACS caliber (BD Biociences, San Jose, Calif., USA) flow cytometry equipped with cellquest software."}, "HEL cells": {"system": "HEL cells", "assay": "Apoptosis assay, Annexin V staining, flow cytometry", "conditions": "10 nM MTX payload or equal molar", "experimental": "as §2"}}}
{"smiles": "CN(Cc1cnc2nc(N)nc(N)c2n1)c1ccc(C(=O)N[C@@H](CCC(=O)O)C(=O)O)cc1", "note": "[free MTX, Methotrexate]", "values": [{"measurement": "effect on cell proliferation (in words)", "setting": "[1]; U937, 10 nM MTX, treated 2 hours, cultured 48 hr", "result": "minimal effect on both cells"}, {"measurement": "inhibition", "setting": "[1]; U937, 100 nM final concentration", "result": "about 30%"}, {"measurement": "inhibition", "setting": "AML cells (HEL); 100 nM final concentration", "result": "about 30%"}, {"measurement": "effect on cell proliferation (in words)", "setting": "AML cells (HEL); equal molar (10 nM MTX), treated 2 hours, cultured 48 hr", "result": "minimal effect on both cells"}, {"measurement": "cell apoptosis / toxicity", "setting": "[2]", "result": "minimal effect on both HEL and control cells"}, {"measurement": "cell apoptosis", "setting": "HEL cells", "result": "minimal effect on both HEL and control cells"}]}
